Data published in patent US20150259294A1, “METHOD OF PLANT GROWTH PROMOTION USING CARBOXAMIDE DERIVATIVES” (BAYER CROPSCIENCE AG, priority 2012, published 2015).

Tests used:
[1] = system: wheat leave discs; assay: Chlorophyll preservation bioassay in wheat leave discs; settings: for Chlorophyll content (%): wheat leave discs at 4 dpt vs control at 0 dpt; for colour of leave discs at the end of the experiment: wheat and barley leave discs, 3 or 4 dpt in the dark
Protocol: (§1) To confirm the greening effect of compounds of formula (I) according to the invention observed in field trials, a simple bioassay was set up using wheat and barley. Discs of 1 cm of diameter were cut within leaves collected from 4 weeks old plants and deep at room temperature in water for 1 hour to allow ethylene produced after wound injury to dissipate. Control samples were produced dipping leave discs for 15 min in a solution of 5% DMSO-10% acetone-0.005% tween80 (bioassay formulation), immediately frozen (control 0 day post treatment-dpt) or deposited on Whatmann filter paper soaked by the bioassay formulation, in Petri dishes, […] Leaves discs treated with test compound were processed in the same way. In this case, leave discs were deep for 15 minutes in test compound solution and left to incubate on filter paper soaked with the corresponding test solution. Compounds of formula (I) according to the invention were tested in EC100 formulation unless otherwise specified; Other SDHI fungicides (Fluxapyroxad, Isopyrazam and Hambra) were tested in their respective field formulations.
(§2) Leave discs were frozen in liquid nitrogen and ground prior to chlorophyll extraction with 1 mL of an acetone-water (80-20 vol/vol) solution and chlorophyll concentration evaluation at 663 nm. Percentages of chlorophyll content in 3 or 4 dpt controls and corresponding treated samples were reported to the chlorophyll content measured in 0 dpt controls.

[2] = system: winter wheat variety Dekan; assay: Foliar application field trial Laacherhof: greening effect in winter wheat; assay type: in vivo; settings: 50 g a.i./ha, sprayed threefold at BBCH 31, 39 and 69; percentage of the color green; untreated control 21.7
Protocol: (§3) The field trial in winter wheat was conducted in the experimental station “Laacherhof” in Germany in spring/summer 2012.
(§4) Seeds of the winter wheat variety “Dekan” were planted on Oct. 17, 2011. Fertilization, herbicide- and plant growth regulator applications were carried out according to the local agricultural practice. Additionally, a cover spray with “Pronto Plus” was carried out at BBCH-growth stage 51 in order to keep brown rust (Puccinia triticina) out of the field trial (trial under pathogen-free conditions). The trial was conducted with 3 replicates and the replicates 2 and 3 were randomized. The plot size was 8.8 m^2.
(§5) Compounds A5 (N-(5-chloro-2-isopropylbenzyl)-N-cyclopropyl-3-(difluoromethyl)-5-fluoro-1-methyl-1H-pyrazole-4-carboxamide), A7 (N-cyclopropyl-3-(difluoromethyl)-5-fluoro-N-(5-fluoro-2-isopropylbenzyl)-1-methyl-1H-pyrazole-4-carboxamide), A12 (N-cyclopropyl-3-(difluoromethyl)-5-fluoro-N-(2-isopropyl-5-methylbenzyl)-1-methyl-1H-pyrazole-4-carboxamide) and A10 (N-cyclopropyl-3-(difluoromethyl)-5-fluoro-N-(2-fluoro-6-isopropylbenzyl)-1-methyl-1H-pyrazole-4-carboxamide) were sprayed threefold at BBCH-growth stages 31, 39 and 69 with an use rate of 50 g a.i./ha. All compounds were applied as 100EC formulation adding an adjuvant.
The greening effect of the single treatments was evaluated on Jul. 6, 2012.

[3] = system: winter wheat variety Dekan; assay: Foliar application field trial Laacherhof: yield of winter wheat; assay type: in vivo; settings: 50 g a.i./ha, sprayed threefold at BBCH 31, 39 and 69, 100EC formulation with adjuvant; for Grain Yield (dt/ha): untreated control 86.25
Protocol: as §3, §4, §5
The winter wheat was harvested on Aug. 3, 2012.

[4] = system: barley leave discs; assay: Chlorophyll preservation bioassay in barley leave discs; settings: barley leaves at 3 dpt vs control at 0 dpt
Protocol: as §1, §2

[5] = formula (I) compounds in EC100 formulation, other SDHI in field formulations

CC(C)c1ccccc1CN(C(=O)c1c(C(F)F)nn(C)c1F)C1CC1 [Compound A1, N-cyclopropyl-3-(difluoromethyl)-5-fluoro-N-(2-isopropylbenzyl)-1-methyl-1H-pyrazole-4-carboxamide]
Chlorophyll content (%) [1, 5]: 87%

CC(C)c1ccc(F)cc1CN(C(=O)c1c(C(F)F)nn(C)c1F)C1CC1 [Compound A7, N-cyclopropyl-3-(difluoromethyl)-5-fluoro-N-(5-fluoro-2-isopropylbenzyl)-1-methyl-1H-pyrazole-4-carboxamide]
Chlorophyll content (%) ([1]; tested in EC50 formulation): 83% | Greening Effect (%) [2]: 36.7% | Grain Yield (% of Untreated Control) [3]: 115% | Grain Yield (dt/ha) [3]: 99.4 dt/ha | Chlorophyll content (%) ([4]; tested in EC50 formulation): 77%

CC(C)c1cccc(F)c1CN(C(=O)c1c(C(F)F)nn(C)c1F)C1CC1 [Compound A10, N-cyclopropyl-3-(difluoromethyl)-5-fluoro-N-(2-fluoro-6-isopropylbenzyl)-1-methyl-1H-pyrazole-4-carboxamide]
Greening Effect (%) [2]: 50.0% | Grain Yield (% of Untreated Control) [3]: 116% | Grain Yield (dt/ha) [3]: 99.9 dt/ha | Chlorophyll content (%) [4, 5]: 60%

Cc1ccc(C(C)C)c(CN(C(=O)c2c(C(F)F)nn(C)c2F)C2CC2)c1 [Compound A12, N-cyclopropyl-3-(difluoromethyl)-5-fluoro-N-(2-isopropyl-5-methylbenzyl)-1-methyl-1H-pyrazole-4-carboxamide]
Chlorophyll content (%) [1, 5]: 88% | Greening Effect (%) [2]: 53.3% | Grain Yield (% of Untreated Control) [3]: 110% | Grain Yield (dt/ha) [3]: 94.9 dt/ha | Chlorophyll content (%) [4, 5]: 72%

Cc1ccc(C(C)(C)C)c(CN(C(=O)c2c(C(F)F)nn(C)c2F)C2CC2)c1 [Compound A14, N-(2-tert-butyl-5-methylbenzyl)-N-cyclopropyl-3-(difluoromethyl)-5-fluoro-1-methyl-1H-pyrazole-4-carboxamide]
Chlorophyll content (%) [4, 5]: 77%

Cn1cc(C(=O)Nc2ccccc2-c2cc(F)c(F)c(F)c2)c(C(F)F)n1 [Fluxapyroxad, reference compound]
colour of leave discs at the end of the experiment [1]: discolored | Chlorophyll content (%) [1, 5]: 51% | Chlorophyll content (%) [4, 5]: 28%

CC(C)C1C2CCC1c1c(NC(=O)c3cn(C)nc3C(F)F)cccc12 (stereo not shown) [Isopyrazam, reference compound]
colour of leave discs at the end of the experiment [1]: discolored | Chlorophyll content (%) [1, 5]: 49% | Chlorophyll content (%) [4, 5]: 32%
